Experimental data reported in article PMC9026148, “Pre-Clinical Study Evaluating Novel Protein Phosphatase 2A Activators as Therapeutics for Neuroblastoma” (Cancers, 2022).

Assay: Plasma levels after oral dose in mice
Type: in vivo, mouse
Settings: male ICR mice, bolus oral dose 50 mg/kg in 1:1:8 DMA:Solutol:water; compared to DBK-1154
Description: Blood aliquots were collected via cardiac puncture (300 µL) sampling from anesthetized mice in tubes coated with lithium heparin, mixed gently, then kept on ice and centrifuged at 2500× g for 15 min at 4 °C, within 1 h of collection. The plasma was harvested and kept frozen at −70 °C until further processing.
The plasma samples were processed using protein precipitation and analyzed by LC-MS/MS. A plasma calibration curve was generated. Aliquots of drug-free plasma were spiked with the test articles at the specified concentration levels. The spiked plasma samples were processed together with the unknown plasma samples using the same procedure. The processed plasma samples were placed in the autosampler until the LC-MS/MS analysis, at which time peak areas were recorded, and the concentrations of the test articles in the unknown plasma samples were determined using the respective calibration curve. The reportable linear range of the assay was determined, along with the lower limit of quantitation (LLOQ).
Plots of plasma concentration of test articles, ATUX-792 and DBK-1154, vs. time are constructed and shown in Supplementary Figure S2.
levels compared to DBK -1154. Serum concentration after bolus oral dose of 50 mg/kg in
1:1:8 DMA:Solutol:water (3 animals per time point). Blood aliquots were collected via car- […]
quantitative bioanalysis. […]

O=S(=O)(N[C@H]1COC[C@@H](n2c3ccc(Cl)cc3c3cc(Cl)ccc32)[C@@H]1O)c1ccc(OC(F)(F)F)cc1 [ATUX-792]
oral bioavailability / plasma levels: good oral bioavailability
